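Exposure lasted 48 hours, with cells grown in 96-well plates and compounds tested at five concentrations. At the GI50, growth is halved.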 Activity calls are given as the source filed them. Cut-off read from the data, not from the text of the source: active = GI50 up to about 1.1 µM and inactive = higher.
What was measured:
Assay in all cases: DTP human tumour cell line panel, 48 h
HT-29 = tested on: HT-29
NCI-H23 = tested on: NCI-H23
OVCAR-3 = tested on: OVCAR-3
SF-268 = tested on: SF-268
786-0 = tested on: 786-0
RXF 393 = tested on: RXF 393
NCI-H460 = tested on: NCI-H460
OVCAR-8 = tested on: OVCAR-8
SN12C = tested on: SN12C
HOP-92 = tested on: HOP-92
SK-MEL-28 = tested on: SK-MEL-28
HOP-62 = tested on: HOP-62
LOX IMVI = tested on: LOX IMVI
SK-MEL-2 = tested on: SK-MEL-2
A549 = tested on: A549
SNB-75 = tested on: SNB-75
SK-MEL-5 = tested on: SK-MEL-5
DU-145 = tested on: DU-145
Hs-578T = tested on: Hs-578T
BT-549 = tested on: BT-549

Compound | GI50 (HT-29) | GI50 (NCI-H23) | GI50 (OVCAR-3) | GI50 (SF-268) | GI50 (786-0) | GI50 (RXF 393) | GI50 (NCI-H460) | GI50 (OVCAR-8) | GI50 (SN12C) | GI50 (HOP-92) | GI50 (SK-MEL-28) | GI50 (HOP-62) | GI50 (LOX IMVI) | GI50 (SK-MEL-2) | GI50 (A549) | GI50 (SNB-75) | GI50 (SK-MEL-5) | GI50 (DU-145) | GI50 (Hs-578T) | GI50 (BT-549)
CCOC(=O)C(=O)C(C#N)c1ccc(Cl)cc1 (stereo not given) | > 100 µM (inactive) | > 100 µM (inactive) | > 100 µM (inactive) | > 100 µM (inactive) | > 100 µM (inactive) | > 100 µM (inactive) | > 100 µM (inactive) | > 100 µM (inactive) | > 100 µM (inactive) | > 100 µM (inactive) | > 100 µM (inactive) | > 100 µM (inactive) | > 100 µM (inactive) | > 100 µM (inactive) | > 100 µM (inactive) | > 100 µM (inactive) | > 100 µM (inactive) | – | – | –
CSc1cc(Cl)c(C)cc1S(=O)(=O)NC(=O)NNc1ccc(F)cc1 | > 100 µM (inactive) | – | > 100 µM (inactive) | > 100 µM (inactive) | > 100 µM (inactive) | > 100 µM (inactive) | > 100 µM (inactive) | > 100 µM (inactive) | > 100 µM (inactive) | – | > 100 µM (inactive) | > 100 µM (inactive) | > 100 µM (inactive) | > 100 µM (inactive) | > 100 µM (inactive) | > 100 µM (inactive) | > 100 µM (inactive) | > 100 µM (inactive) | > 100 µM (inactive) | –
CN(C)c1ccc(/C=c2\sc3nnc(Cc4ccccc4)n3c2=O)cc1 | 62.5 µM (inactive) | > 10 µM (inactive) | > 10 µM (inactive) | 28.3 µM (inactive) | > 10 µM (inactive) | 31.8 µM (inactive) | > 10 µM (inactive) | > 10 µM (inactive) | > 10 µM (inactive) | > 100 µM (inactive) | > 10 µM (inactive) | > 10 µM (inactive) | > 10 µM (inactive) | > 10 µM (inactive) | 37 µM (inactive) | > 10 µM (inactive) | > 10 µM (inactive) | – | – | –
COc1cc([C@@H]2c3cc4c(cc3[C@@H](Nc3ccc([N+](=O)[O-])cc3C(=O)c3ccccc3)[C@H]3COC(=O)[C@H]23)OCO4)cc(OC)c1OC | 0.32 µM (active) | 0.428 µM (active) | 0.434 µM (active) | 0.472 µM (active) | 0.425 µM (active) | 0.573 µM (active) | 0.258 µM (active) | 0.515 µM (active) | 0.416 µM (active) | 8.05 µM (inactive) | – | 0.282 µM (active) | 0.281 µM (active) | 3.28 µM (inactive) | 0.446 µM (active) | > 100 µM (inactive) | 0.2 µM (active) | 0.434 µM (active) | 5.05 µM (inactive) | –
O=C(CC1(O)C(=O)Nc2c(Cl)cc(Cl)cc21)c1ccc2ccccc2c1 (stereo not given) | 5.25 µM (inactive) | 7.33 µM (inactive) | 6.18 µM (inactive) | 12.2 µM (inactive) | 10.2 µM (inactive) | 8.17 µM (inactive) | 4.7 µM (inactive) | 10.6 µM (inactive) | 10.4 µM (inactive) | 21.4 µM (inactive) | 10.7 µM (inactive) | 7.83 µM (inactive) | 10.5 µM (inactive) | 2.48 µM (inactive) | 5.2 µM (inactive) | 3.99 µM (inactive) | 6.11 µM (inactive) | – | – | –
CCO/C=N\C1=C(C#N)SC2=N/C(=C\c3ccc(OC)cc3)C(=O)N21 | > 100 µM (inactive) | > 100 µM (inactive) | – | 45.4 µM (inactive) | 40.6 µM (inactive) | 43.5 µM (inactive) | – | > 100 µM (inactive) | > 100 µM (inactive) | > 100 µM (inactive) | > 100 µM (inactive) | – | > 100 µM (inactive) | – | > 100 µM (inactive) | 19.2 µM (inactive) | > 100 µM (inactive) | > 100 µM (inactive) | 33.7 µM (inactive) | –
CC1=C(CO)C(=O)OC(C(C)C2CCC3C4CC5OC56C(O)C(N5CC5)=CC(=O)C6(C)C4CCC23C)C1 (stereo not given) | 3.94 µM (inactive) | 2.35 µM (inactive) | 3.43 µM (inactive) | 3.81 µM (inactive) | 5.05 µM (inactive) | 12 µM (inactive) | 9.44 µM (inactive) | 2.2 µM (inactive) | 6.58 µM (inactive) | 5.33 µM (inactive) | 16 µM (inactive) | 18.5 µM (inactive) | 14 µM (inactive) | 5.73 µM (inactive) | 10.4 µM (inactive) | 4.01 µM (inactive) | 12.8 µM (inactive) | – | – | –
CSc1ccc(NC(=S)NN(C)C)cc1 | > 10 µM (inactive) | > 10 µM (inactive) | > 10 µM (inactive) | > 10 µM (inactive) | > 10 µM (inactive) | > 10 µM (inactive) | > 10 µM (inactive) | > 10 µM (inactive) | > 10 µM (inactive) | > 10 µM (inactive) | > 10 µM (inactive) | > 10 µM (inactive) | > 10 µM (inactive) | > 10 µM (inactive) | > 10 µM (inactive) | > 10 µM (inactive) | > 10 µM (inactive) | > 10 µM (inactive) | > 10 µM (inactive) | –
CC(=O)N/C(=C\c1cccc([N+](=O)[O-])c1)c1nc2ccc3c(c2[nH]1)C(=O)c1ccccc1C3=O | > 100 µM (inactive) | 39.8 µM (inactive) | > 100 µM (inactive) | 13.6 µM (inactive) | 27.2 µM (inactive) | 22.8 µM (inactive) | 27.2 µM (inactive) | 43.6 µM (inactive) | 21 µM (inactive) | > 50.4 µM (inactive) | > 100 µM (inactive) | 78 µM (inactive) | 13.3 µM (inactive) | 50.2 µM (inactive) | 26.6 µM (inactive) | 21.3 µM (inactive) | > 79.6 µM (inactive) | – | – | –
CCCCCc1cc2c(cc1O)CC[C@@H]1[C@@H]2CC[C@]2(C)[C@@H](O)CC[C@@H]12 | 20 µM (inactive) | 21.3 µM (inactive) | 14.3 µM (inactive) | 17.7 µM (inactive) | 14.8 µM (inactive) | 19.5 µM (inactive) | 17.4 µM (inactive) | 20.1 µM (inactive) | 16.2 µM (inactive) | 14.3 µM (inactive) | 16.2 µM (inactive) | 22.4 µM (inactive) | 18.2 µM (inactive) | 23.3 µM (inactive) | 19.3 µM (inactive) | 13.5 µM (inactive) | 19.8 µM (inactive) | 16.4 µM (inactive) | 19.8 µM (inactive) | –
CC[C@H](C)[C@H]1NC(=O)C(C(C)=O)=C1O | > 100 µM (inactive) | > 100 µM (inactive) | 72.9 µM (inactive) | 55.2 µM (inactive) | 98.6 µM (inactive) | 23.3 µM (inactive) | 80 µM (inactive) | > 100 µM (inactive) | 83.6 µM (inactive) | > 100 µM (inactive) | 64 µM (inactive) | > 100 µM (inactive) | 62.4 µM (inactive) | 95.3 µM (inactive) | > 100 µM (inactive) | 91.2 µM (inactive) | 98.9 µM (inactive) | – | – | –
CCc1ccccc1/N=N/C(=O)NNc1ccccc1CC | 24 µM (inactive) | 19.9 µM (inactive) | 18.7 µM (inactive) | 17.3 µM (inactive) | 17.6 µM (inactive) | – | 18 µM (inactive) | 15.2 µM (inactive) | 18.5 µM (inactive) | – | 17.7 µM (inactive) | 15.8 µM (inactive) | 18.5 µM (inactive) | 17.5 µM (inactive) | 14.9 µM (inactive) | 19.4 µM (inactive) | 15 µM (inactive) | 14.9 µM (inactive) | – | 18.4 µM (inactive)
CN(C)c1n/c(=N/Cc2ccccc2)ss1 | > 10 µM (inactive) | > 10 µM (inactive) | > 10 µM (inactive) | > 10 µM (inactive) | > 6.82 µM (inactive) | > 10 µM (inactive) | > 10 µM (inactive) | > 10 µM (inactive) | > 10 µM (inactive) | > 10 µM (inactive) | > 10 µM (inactive) | > 10 µM (inactive) | > 5.77 µM (inactive) | – | > 10 µM (inactive) | > 10 µM (inactive) | > 10 µM (inactive) | > 10 µM (inactive) | > 10 µM (inactive) | –
CN(CC#N)C1CCCC[C@H]1O (stereo not given in full) | > 100 µM (inactive) | > 100 µM (inactive) | > 100 µM (inactive) | > 100 µM (inactive) | > 100 µM (inactive) | > 100 µM (inactive) | > 100 µM (inactive) | > 100 µM (inactive) | > 100 µM (inactive) | > 100 µM (inactive) | > 100 µM (inactive) | > 100 µM (inactive) | > 100 µM (inactive) | > 100 µM (inactive) | > 100 µM (inactive) | > 100 µM (inactive) | > 100 µM (inactive) | – | – | –
CC(C)Cc1ccc(C(C)/C=C2\CCC(CN3CCCC3)C2=O)cc1 (stereo not given) | 8.09 µM (inactive) | 11.5 µM (inactive) | 3.69 µM (inactive) | 3.98 µM (inactive) | 1.85 µM (inactive) | 18.8 µM (inactive) | 17.7 µM (inactive) | 7.01 µM (inactive) | 3.97 µM (inactive) | 19.1 µM (inactive) | 14.6 µM (inactive) | 12.3 µM (inactive) | 2.88 µM (inactive) | 17.7 µM (inactive) | 18.3 µM (inactive) | 14.1 µM (inactive) | 14.8 µM (inactive) | – | – | –
CNC(=O)OCc1c(CO)nc(SC)n1C | > 100 µM (inactive) | > 100 µM (inactive) | > 100 µM (inactive) | > 100 µM (inactive) | – | > 100 µM (inactive) | > 100 µM (inactive) | > 100 µM (inactive) | > 100 µM (inactive) | > 100 µM (inactive) | > 100 µM (inactive) | > 100 µM (inactive) | > 100 µM (inactive) | > 100 µM (inactive) | > 100 µM (inactive) | > 100 µM (inactive) | > 100 µM (inactive) | – | – | –
